Experiment: excess molar enthalpy (molar enthalpy of mixing); xn = mol fraction of the nth substance listed
Conditions: 298.15 K, 101 kPa, Liquid, ISOTHERMAL TITRATION CALORIMETRY

CCCCCOCCCCC [dipentyl ether] + CCCCCCCCCCCC
Conditions | excess molar enthalpy [kcal/mol]
x1 = 0.0242 | 0.00454
x1 = 0.0473 | 0.00884
x1 = 0.0693 | 0.0122
x1 = 0.0903 | 0.0155
x1 = 0.1104 | 0.0184
x1 = 0.1296 | 0.021
x1 = 0.148 | 0.0234
x1 = 0.1657 | 0.0256
x1 = 0.1869 | 0.028
x1 = 0.2071 | 0.0301
x1 = 0.2262 | 0.032
x1 = 0.2445 | 0.0337
x1 = 0.2619 | 0.0351
x1 = 0.2786 | 0.0363
x1 = 0.2989 | 0.0378
x1 = 0.3181 | 0.039
x1 = 0.3363 | 0.0399
x1 = 0.3535 | 0.0409
x1 = 0.3699 | 0.0416
x1 = 0.3855 | 0.0423
x1 = 0.4003 | 0.0425
x1 = 0.4144 | 0.0428
x1 = 0.431 | 0.0433
x1 = 0.4466 | 0.0433
x1 = 0.4614 | 0.0435
x1 = 0.4754 | 0.0435
x1 = 0.4887 | 0.0435
x1 = 0.5014 | 0.0433
x1 = 0.5129 | 0.0433
x1 = 0.5241 | 0.0433
x1 = 0.5358 | 0.043
x1 = 0.5481 | 0.043
x1 = 0.5609 | 0.0428
x1 = 0.5743 | 0.0425
x1 = 0.5884 | 0.0423
x1 = 0.6031 | 0.0418
x1 = 0.6161 | 0.0413
x1 = 0.6297 | 0.0409
x1 = 0.644 | 0.0402
x1 = 0.6589 | 0.0397
x1 = 0.6745 | 0.0387
x1 = 0.6908 | 0.0378
x1 = 0.7056 | 0.0366
x1 = 0.721 | 0.0354
x1 = 0.7371 | 0.0342
x1 = 0.7539 | 0.0327
x1 = 0.7715 | 0.0313
x1 = 0.79 | 0.0294
x1 = 0.8057 | 0.028
x1 = 0.8221 | 0.0261
x1 = 0.8391 | 0.0241
x1 = 0.8569 | 0.022
x1 = 0.8754 | 0.0196
x1 = 0.8947 | 0.0167
x1 = 0.9107 | 0.0146
x1 = 0.9273 | 0.0122
x1 = 0.9445 | 0.00956
x1 = 0.9623 | 0.00645
x1 = 0.9808 | 0.00335

CCCCCOCCCCC [dipentyl ether] + CCCCCCCCCCCCCC
Conditions | excess molar enthalpy [kcal/mol]
x1 = 0.0299 | 0.00693
x1 = 0.0581 | 0.0129
x1 = 0.0847 | 0.0182
x1 = 0.1099 | 0.0227
x1 = 0.1337 | 0.0265
x1 = 0.1562 | 0.0304
x1 = 0.1776 | 0.0335
x1 = 0.198 | 0.0361
x1 = 0.22 | 0.0392
x1 = 0.2447 | 0.0416
x1 = 0.266 | 0.044
x1 = 0.2862 | 0.0459
x1 = 0.3054 | 0.0473
x1 = 0.3235 | 0.0485
x1 = 0.3407 | 0.0497
x1 = 0.357 | 0.0507
x1 = 0.3761 | 0.0519
x1 = 0.394 | 0.0526
x1 = 0.411 | 0.0531
x1 = 0.427 | 0.0535
x1 = 0.4422 | 0.0538
x1 = 0.4566 | 0.054
x1 = 0.4702 | 0.0543
x1 = 0.4832 | 0.0543
x1 = 0.4927 | 0.0543
x1 = 0.5031 | 0.0545
x1 = 0.5139 | 0.0545
x1 = 0.5253 | 0.0547
x1 = 0.5371 | 0.0545
x1 = 0.5494 | 0.0545
x1 = 0.5604 | 0.0543
x1 = 0.5718 | 0.054
x1 = 0.5838 | 0.0535
x1 = 0.5962 | 0.0533
x1 = 0.6092 | 0.0528
x1 = 0.6228 | 0.0521
x1 = 0.6369 | 0.0511
x1 = 0.6502 | 0.0507
x1 = 0.664 | 0.0497
x1 = 0.6784 | 0.0488
x1 = 0.6934 | 0.0476
x1 = 0.7092 | 0.0464
x1 = 0.7256 | 0.0449
x1 = 0.7398 | 0.0435
x1 = 0.7546 | 0.0421
x1 = 0.7699 | 0.0404
x1 = 0.7859 | 0.0382
x1 = 0.8026 | 0.0361
x1 = 0.8199 | 0.0337
x1 = 0.8353 | 0.0313
x1 = 0.8513 | 0.0289
x1 = 0.8679 | 0.0263
x1 = 0.8852 | 0.0234
x1 = 0.9032 | 0.0203
x1 = 0.918 | 0.0177
x1 = 0.9333 | 0.0146
x1 = 0.9491 | 0.0112
x1 = 0.9655 | 0.00765
x1 = 0.9824 | 0.00406

CCCCCOCCCCC [dipentyl ether] + CCCCCCCCCCCCCCCC
Conditions | excess molar enthalpy [kcal/mol]
x1 = 0.0349 | 0.00884
x1 = 0.0674 | 0.0165
x1 = 0.0979 | 0.0229
x1 = 0.1264 | 0.0287
x1 = 0.1531 | 0.0335
x1 = 0.1783 | 0.0378
x1 = 0.2066 | 0.0423
x1 = 0.233 | 0.0461
x1 = 0.2577 | 0.0495
x1 = 0.2809 | 0.0523
x1 = 0.3027 | 0.0545
x1 = 0.3231 | 0.0564
x1 = 0.3459 | 0.0583
x1 = 0.3673 | 0.0598
x1 = 0.3873 | 0.0612
x1 = 0.4061 | 0.0621
x1 = 0.4238 | 0.0629
x1 = 0.4405 | 0.0633
x1 = 0.4593 | 0.0638
x1 = 0.4768 | 0.0641
x1 = 0.4933 | 0.0643
x1 = 0.5087 | 0.0643
x1 = 0.5158 | 0.0645
x1 = 0.5271 | 0.0645
x1 = 0.5389 | 0.0643
x1 = 0.5491 | 0.0643
x1 = 0.5598 | 0.0641
x1 = 0.5706 | 0.0638
x1 = 0.5823 | 0.0633
x1 = 0.5943 | 0.0629
x1 = 0.6067 | 0.0624
x1 = 0.6197 | 0.0617
x1 = 0.6333 | 0.0607
x1 = 0.645 | 0.06
x1 = 0.6527 | 0.059
x1 = 0.6699 | 0.0578
x1 = 0.6831 | 0.0566
x1 = 0.6968 | 0.0552
x1 = 0.7111 | 0.0535
x1 = 0.7238 | 0.0519
x1 = 0.737 | 0.0504
x1 = 0.7506 | 0.0485
x1 = 0.7648 | 0.0464
x1 = 0.7795 | 0.0442
x1 = 0.7984 | 0.0416
x1 = 0.8182 | 0.039
x1 = 0.8315 | 0.0363
x1 = 0.8512 | 0.0332
x1 = 0.8718 | 0.0301
x1 = 0.8935 | 0.0265
x1 = 0.9162 | 0.0227
x1 = 0.9292 | 0.0196
x1 = 0.9425 | 0.0163
x1 = 0.9563 | 0.0124
x1 = 0.9704 | 0.0086
x1 = 0.985 | 0.00454

Reference: the NIST ThermoML archive (doi:10.1016/j.jct.2010.11.004)
